Measured values: publication PMC9090415, “Discovery of small molecule inhibitors of Plasmodium falciparum apicoplast DNA polymerase” (Journal of Enzyme Inhibition and Medicinal Chemistry, 2022)

Molecular target: P. falciparum apicoplast DNA polymerase (Pf-apPOL) (Plasmodium falciparum, UniProt Q8ILY1)
Test: Fluorescence-based high-throughput DNA polymerase assay (molecular beacon), primary screen and dose-response
Format: biochemical
In short: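 Single-point screening used 10 µM compound with 20 nM polymerase, 20 nM hairpin substrate and 6 µM dNTPs for 90 min at 25 °C. Confirmatory titrations (2.5–80 µM) followed fluorescence at three times, and IC50 was derived from a fit including a cooperativity term n.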

[1] = primary screen value of the 186 hits; unit not given; 90 min, 10 µM
[2] = supplemental file 2, sheet IC50 nontoxic compounds; Pf-apPOL

Sequence of P. falciparum apicoplast DNA polymerase (Pf-apPOL) (Q8ILY1 entry or part of it): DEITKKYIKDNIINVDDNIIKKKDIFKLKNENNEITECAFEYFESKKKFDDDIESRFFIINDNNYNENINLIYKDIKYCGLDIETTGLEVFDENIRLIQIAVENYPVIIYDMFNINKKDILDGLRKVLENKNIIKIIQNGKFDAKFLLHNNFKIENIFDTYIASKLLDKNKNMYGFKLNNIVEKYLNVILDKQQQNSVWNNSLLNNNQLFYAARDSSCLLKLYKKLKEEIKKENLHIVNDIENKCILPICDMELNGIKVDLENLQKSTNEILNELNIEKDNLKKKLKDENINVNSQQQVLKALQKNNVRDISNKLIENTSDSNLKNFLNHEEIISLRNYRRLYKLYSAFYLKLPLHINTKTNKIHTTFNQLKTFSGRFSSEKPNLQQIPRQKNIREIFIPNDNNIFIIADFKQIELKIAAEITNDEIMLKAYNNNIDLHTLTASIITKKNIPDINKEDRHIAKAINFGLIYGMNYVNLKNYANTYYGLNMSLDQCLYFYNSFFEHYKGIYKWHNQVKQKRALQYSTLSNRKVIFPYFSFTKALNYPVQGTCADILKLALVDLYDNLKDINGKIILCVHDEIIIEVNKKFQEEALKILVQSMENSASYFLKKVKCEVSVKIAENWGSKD

CCc1ccccc1NC(=O)c1ccc(-c2ncccc2NC(C)=O)cc1 [KU0203112]
% inhibition Apo pol 10' (DRC-1; concentration 2.5; 10'): 16.2237%
% inhibition Apol 90' (DRC-1; concentration 2.5; 90'): 2.255%
% inhibition apPOL 180' (DRC-1; concentration 2.5; 180'): -4.969%
% inhibition Apo pol 10' (DRC-1; concentration 5; 10'): 20.5956%
% inhibition Apol 90' (DRC-1; concentration 5; 90'): 6.528%
% inhibition apPOL 180' (DRC-1; concentration 5; 180'): -1.7806%
% inhibition Apo pol 10' (DRC-1; concentration 10; 10'): 40.7013%
% inhibition Apol 90' (DRC-1; concentration 10; 90'): 22.2992%
% inhibition apPOL 180' (DRC-1; concentration 10; 180'): 9.63%
% inhibition Apo pol 10' (DRC-1; concentration 20; 10'): 66.0159%
% inhibition Apol 90' (DRC-1; concentration 20; 90'): 44.8534%
% inhibition apPOL 180' (DRC-1; concentration 20; 180'): 25.9288%
% inhibition Apo pol 10' (DRC-1; concentration 40; 10'): 83.2179%
% inhibition Apol 90' (DRC-1; concentration 40; 90'): 72.954%
% inhibition apPOL 180' (DRC-1; concentration 40; 180'): 58.4495%
% inhibition Apo pol 10' (DRC-1; concentration 80 (unit not given); 10'): 89.6121%
% inhibition Apol 90' (DRC-1; concentration 80; 90'): 90.3611%
% inhibition apPOL 180' (DRC-1; concentration 80; 180'): 89.009%
% inhibition ApPOL 90' (DRC-2; 90'; concentration 40): 70%
% inhibition apPOL 180' (DRC-2; 180'; concentration 40): 70%
% inhibition Apo pol 5' (DRC-2; concentration 2.5; 5'): 0.547%
% inhibition Apol 40' (DRC-2; concentration 2.5; 40'): 0.556%
% inhibition ApPOL 90' (DRC-2; concentration 2.5; 90'): -1.65%
% inhibition apPOL 180' (DRC-2; concentration 2.5; 180'): -5.44%
% inhibition Apo pol 5' (DRC-2; concentration 5; 5'): 5.51%
% inhibition Apol 40' (DRC-2; concentration 5; 40'): 7%
% inhibition ApPOL 90' (DRC-2; concentration 5; 90'): 5.44%
% inhibition apPOL 180' (DRC-2; concentration 5; 180'): -1.68%
% inhibition Apo pol 5' (DRC-2; concentration 10; 5'): 27%
% inhibition Apol 40' (DRC-2; concentration 10; 40'): 28%
% inhibition ApPOL 90' (DRC-2; concentration 10; 90'): 25%
% inhibition apPOL 180' (DRC-2; concentration 10; 180'): 14%
% inhibition Apo pol 5' (DRC-2; concentration 20; 5'): 43%
% inhibition Apol 40' (DRC-2; concentration 20; 40'): 54%
% inhibition ApPOL 90' (DRC-2; concentration 20; 90'): 52%
% inhibition apPOL 180' (DRC-2; concentration 20; 180'): 41%
% inhibition Apo pol 5' (DRC-2; concentration 40; 5'): 50%
% inhibition Apol 40' (DRC-2; concentration 40; 40'): 68%
% inhibition ApPOL 90' (DRC-2; concentration 40; 90'): 70%
% inhibition apPOL 180' (DRC-2; concentration 40; 180'): 70%
% inhibition Apo pol 5' (DRC-2; concentration 80; 5'): 47%
% inhibition Apol 40' (DRC-2; concentration 80; 40'): 69%
% inhibition ApPOL 90' (DRC-2; concentration 80; 90'): 74%
% inhibition apPOL 180' (DRC-2; concentration 80; 180'): 77%
DNA Pol [1]: 26
DNA Pol (primary screen value; head prints only 'DNA Pol'; 90 min, 10 µM): 26

Cc1ccc(C)n1-c1ccc(C(=O)NNC(=O)c2ccc3nccnc3c2)cc1 [Molecule 53]
IC50 [2]: 20.4 µM

Cc1nc2c(oc3nc(-c4ccco4)c4c(c32)CC(C)(C)OC4)c(-c2ccccc2)c1C(=O)O [Molecule 86]
IC50 [2]: 7.41 µM

O=C(Nc1nnc(-c2cccs2)o1)c1ccc([N+](=O)[O-])o1 [Molecule 74, O=C(c1ccc(o1)[N+](=O)[O-])Nc1nnc(o1)c1cccs1]
DNA Pol ('DNA Pol'; screening value, unit not given; 90 min, 10 µM): 45
% inhibition Apo pol 10' (DRC-1; 10'; concentration 2.5): 6.774%
% inhibition Apo pol 10' (DRC-1; 10'; concentration 5): 8.378%
% inhibition Apo pol 10' (DRC-1; 10'; concentration 10): 26.6912%
% inhibition Apo pol 10' (DRC-1; 10'; concentration 20): 31.2083%
% inhibition Apo pol 10' (DRC-1; 10'; concentration 40): 61.6111%
% inhibition Apo pol 10' (DRC-1; 10'; concentration 80): 81.7408%
% inhibition Apol 90' (DRC-1; 90'; concentration 2.5): 1.699%
% inhibition Apol 90' (DRC-1; 90'; concentration 5): 1.687%
% inhibition Apol 90' (DRC-1; 90'; concentration 10): 13.6974%
% inhibition Apol 90' (DRC-1; 90'; concentration 20): 16.6576%
% inhibition Apol 90' (DRC-1; 90'; concentration 40): 40.7668%
% inhibition Apol 90' (DRC-1; 90'; concentration 80): 62.2777%
% inhibition apPOL 180' (DRC-1; 180'; concentration 2.5): -4.1234%
% inhibition apPOL 180' (DRC-1; 180'; concentration 5): -4.583%
% inhibition apPOL 180' (DRC-1; 180'; concentration 10): 3.855%
% inhibition apPOL 180' (DRC-1; 180'; concentration 20): 5.086%
% inhibition apPOL 180' (DRC-1; 180'; concentration 40): 25.388%
% inhibition apPOL 180' (DRC-1; 180'; concentration 80): 45.6773%
% inhibition Apo pol 5' (DRC-2, 5', concentration 2.5): 3%
% inhibition Apo pol 5' (DRC-2, 5', concentration 5): 14%
% inhibition Apo pol 5' (DRC-2, 5', concentration 10): 30%
% inhibition Apo pol 5' (DRC-2, 5', concentration 20): 41%
% inhibition Apo pol 5' (DRC-2, 5', concentration 40): 61%
% inhibition Apo pol 5' (DRC-2, 5', concentration 80): 70%
% inhibition Apol 40' (DRC-2, 40', concentration 2.5): 1.79%
% inhibition Apol 40' (DRC-2, 40', concentration 5): 13%
% inhibition Apol 40' (DRC-2, 40', concentration 10): 27%
% inhibition Apol 40' (DRC-2, 40', concentration 20): 36%
% inhibition Apol 40' (DRC-2, 40', concentration 40): 61%
% inhibition Apol 40' (DRC-2, 40', concentration 80): 78%
% inhibition ApPOL 90' (DRC-2, 90', concentration 2.5): -0.446%
% inhibition ApPOL 90' (DRC-2, 90', concentration 5): 12%
% inhibition ApPOL 90' (DRC-2, 90', concentration 10): 24%
% inhibition ApPOL 90' (DRC-2, 90', concentration 20): 32%
% inhibition ApPOL 90' (DRC-2, 90', concentration 40): 57%
% inhibition ApPOL 90' (DRC-2, 90', concentration 80): 79%
% inhibition apPOL 180' (DRC-2, 180', concentration 2.5): -3.19%
% inhibition apPOL 180' (DRC-2, 180', concentration 5): 7%
% inhibition apPOL 180' (DRC-2, 180', concentration 10): 15%
% inhibition apPOL 180' (DRC-2, 180', concentration 20): 20%
% inhibition apPOL 180' (DRC-2, 180', concentration 40): 45%
% inhibition apPOL 180' (DRC-2, 180', concentration 80): 76%
% inhibition Apo pol 5' (conc 40 (unit not given); 5'; DRC-2): 61%
% inhibition Apol 40' (conc 40 (unit not given); 40'; DRC-2): 61%
DNA Pol (primary screen hit value, DNA Pol (186 hits); 90 min, 10 µM): 45

Cc1cc2[nH]c(C(=O)Nc3ccc(F)cc3)c(CN3CCOCC3)c2s1 [Molecule 60]
IC50 [2]: 21.6 µM

O=C(O)CCS(=O)(=O)c1ccc(-c2ccc(S(=O)(=O)CCC(=O)O)cc2)cc1 [Molecule 32]
IC50 [2]: 5.7 µM

COc1ccc(C2CC(c3ccc(Cl)cc3Cl)Nc3nc(N)nn32)cc1OC (centres unmarked) [Molecule 43]
IC50 [2]: 11.7 µM

Cc1ccsc1Cn1c(C)ccc1C [Molecule 70]
IC50 [2]: 31.6 µM

CCCCOC(=O)CCCCCN1C(=O)C(=Cc2ccc(OC)cc2)SC1=S [Molecule 75]
IC50 [2]: 56.7 µM

O=C(c1c[nH]c2ncccc12)N1CCCC1 [Molecule 63]
IC50 [2]: 21.4 µM

Cc1cccc(-c2nnc3ccc(NS(=O)(=O)c4ccc(C)c(C)c4)nn23)c1 [Molecule 40, Cc1cccc(c1)c1nnc2n1nc(cc2)NS(=O)(=O)c1ccc(c(c1)C)C]
% inhibition Apo pol 10' (DRC-1; 10'; concentration 2.5): 17.5333%
% inhibition Apo pol 10' (DRC-1; 10'; concentration 5): 15.8571%
% inhibition Apo pol 10' (DRC-1; 10'; concentration 10): 58.8718%
% inhibition Apo pol 10' (DRC-1; 10'; concentration 20): 64.4117%
% inhibition Apo pol 10' (DRC-1; 10'; concentration 40): 83.8171%
% inhibition Apo pol 10' (DRC-1; 10'; concentration 80): 87.6455%
% inhibition Apol 90' (DRC-1; 90'; concentration 2.5): 8.645%
% inhibition Apol 90' (DRC-1; 90'; concentration 5): 6.674%
% inhibition Apol 90' (DRC-1; 90'; concentration 10): 42.202%
% inhibition Apol 90' (DRC-1; 90'; concentration 20): 48.6788%
% inhibition Apol 90' (DRC-1; 90'; concentration 40): 74.666%
% inhibition Apol 90' (DRC-1; 90'; concentration 80): 86.8335%
% inhibition apPOL 180' (DRC-1; 180'; concentration 2.5): 2.98%
% inhibition apPOL 180' (DRC-1; 180'; concentration 5): 3.293%
% inhibition apPOL 180' (DRC-1; 180'; concentration 10): 32.359%
% inhibition apPOL 180' (DRC-1; 180'; concentration 20): 37.8584%
% inhibition apPOL 180' (DRC-1; 180'; concentration 40): 67.3017%
% inhibition apPOL 180' (DRC-1; 180'; concentration 80): 87.5255%
% inhibition Apo pol 5' (DRC-2; 5'; concentration 2.5): 5%
% inhibition Apo pol 5' (DRC-2; 5'; concentration 5): 15%
% inhibition Apo pol 5' (DRC-2; 5'; concentration 10): 22%
% inhibition Apo pol 5' (DRC-2; 5'; concentration 20): 26%
% inhibition Apo pol 5' (DRC-2; 5'; concentration 40): 22%
% inhibition Apo pol 5' (DRC-2; 5'; concentration 80): 17%
% inhibition Apol 40' (DRC-2; 40'; concentration 2.5): 4.3%
% inhibition Apol 40' (DRC-2; 40'; concentration 5): 18%
% inhibition Apol 40' (DRC-2; 40'; concentration 10): 30%
% inhibition Apol 40' (DRC-2; 40'; concentration 20): 44%
% inhibition Apol 40' (DRC-2; 40'; concentration 40): 51%
% inhibition Apol 40' (DRC-2; 40'; concentration 80): 53%
% inhibition ApPOL 90' (DRC-2; 90'; concentration 2.5): 3.29%
% inhibition ApPOL 90' (DRC-2; 90'; concentration 5): 17%
% inhibition ApPOL 90' (DRC-2; 90'; concentration 10): 29%
% inhibition ApPOL 90' (DRC-2; 90'; concentration 20): 46%
% inhibition ApPOL 90' (DRC-2; 90'; concentration 40): 57%
% inhibition ApPOL 90' (DRC-2; 90'; concentration 80): 62%
% inhibition apPOL 180' (DRC-2; 180'; concentration 2.5): -0.478%
% inhibition apPOL 180' (DRC-2; 180'; concentration 5): 11%
% inhibition apPOL 180' (DRC-2; 180'; concentration 10): 23%
% inhibition apPOL 180' (DRC-2; 180'; concentration 20): 40%
% inhibition apPOL 180' (DRC-2; 180'; concentration 40): 60%
% inhibition apPOL 180' (DRC-2; 180'; concentration 80): 68%
% inhibition ApPOL 90' (conc. 5; 90'; DRC-2): 17%
% inhibition Apo pol 5' (conc. 10; 5'; DRC-2): 22%
% inhibition Apo pol 5' (conc. 40; 5'; DRC-2): 22%
% inhibition Apo pol 5' (conc. 80; 5'; DRC-2): 17%
DNA Pol (primary screen value by plate and well; 90 min, 10 µM): 50
DNA Pol [1]: 50

Cc1cc(C)c2c(c1)C1C=CCC1C(c1ccc(C(=O)O)cc1)N2 (centres unmarked) [Molecule 102]
IC50 [2]: 2.89 µM
